# Experimental data taken from US20190125786A1, “NOBLE GAS MODULATION OF IL-12” (NOBILIS THERAPEUTICS, INC., priority 2016, published 2019).
# What was measured:
# [1] = system: monocytes (adherent peripheral blood mononuclear cells); test: Suppression of Alzheimer's peptide induced monocyte TNF-alpha production (ELISA); assay type: cell-based, healthy volunteers; settings: adherent cells cultured 1 hour or 2 hours in 30% xenon by volume; 1 ug/ml LPS and 10 μM Aβ (1-42) for 24 h; supernatant ELISA; FIG. 1
# Procedure: 10 ml of heparinized blood was extracted from healthy volunteers and peripheral blood mononuclear cells were isolated by centrifugation over a ficoll gradient. Cells were subsequently washed in 2× volume phosphate buffered saline, and resuspended in RPMI media supplemented with 10% fetal calf serum. Cells were incubated at a concentration of 10 million cells per ml in 6-well plates in a volume of 2 ml per well. Cells were cultured for 24 hours at 37 Celsius in a fully humidified atmosphere with 5% CO2, subsequent to which non-adherent cells were removed by washing with PBS. Adherent cells were subsequently divided into […], one plate incubated at normoxic tissue culture, the second plate cultured for 1 hour in 30% xenon by volume, and the third tissue cultured for 2 hours in 30% volume. Cells were treated with control media, 1 ug/ml LPS and 10 μM of amyloid beta peptide Aβ (1-42) for 24 h. Supernatant was collected and assessed for TNF-alpha production by ELISA.
# CD1c dendritic cells = test: Suppression of Alzheimer's peptide induced dendritic cell IL-12 production (ELISA); assay type: cell-based, healthy volunteers; settings: monocyte-derived CD1c dendritic cells; 1 ug/ml LPS and 10 μM Aβ (1-42) for 24 h; supernatant ELISA; FIG. 2
# Procedure: Monocytes from adherent PBMC were isolated as described in Example 1. Dendritic cells were generated by 7 day culture in IL-4 (10 ng/ml) and GM-CSF (20 ng/ml). Media was changed every two days. On day 7, purification of CD1c dendritic cells was performed and cells were cultured in control media, 1 ug/ml LPS and 10 μM of amyloid beta peptide Aβ (1-42) for 24 h. Supernatant was collected and assessed for IL-12 production by ELISA.
smiles,measurement,setting,value
"[Xe] [xenon gas, xenon]",induced TNF-alpha production,[1],suppression of induced TNF-alpha production was observed
same,induced IL-12 production,CD1c dendritic cells,suppression of induced IL-12 production was observed
